ChEMBL document CHEMBL2074073, “The organic cation transporter OCT2 mediates the uptake of beta-adrenoceptor antagonists across the apical membrane of renal LLC-PK(1) cell monolayers” (Br J Pharmacol, 2000)

Key:
Type in all cases: functional, cell-based
[1] = biological target: T1, Solute carrier family 22 member 2 (Homo sapiens, UniProt O15244); test: (§1) TP_TRANSPORTER: uptake in OCT2-expressing mIMCD3 cells; conditions: mouse
T1 sequence (O15244 whole entry): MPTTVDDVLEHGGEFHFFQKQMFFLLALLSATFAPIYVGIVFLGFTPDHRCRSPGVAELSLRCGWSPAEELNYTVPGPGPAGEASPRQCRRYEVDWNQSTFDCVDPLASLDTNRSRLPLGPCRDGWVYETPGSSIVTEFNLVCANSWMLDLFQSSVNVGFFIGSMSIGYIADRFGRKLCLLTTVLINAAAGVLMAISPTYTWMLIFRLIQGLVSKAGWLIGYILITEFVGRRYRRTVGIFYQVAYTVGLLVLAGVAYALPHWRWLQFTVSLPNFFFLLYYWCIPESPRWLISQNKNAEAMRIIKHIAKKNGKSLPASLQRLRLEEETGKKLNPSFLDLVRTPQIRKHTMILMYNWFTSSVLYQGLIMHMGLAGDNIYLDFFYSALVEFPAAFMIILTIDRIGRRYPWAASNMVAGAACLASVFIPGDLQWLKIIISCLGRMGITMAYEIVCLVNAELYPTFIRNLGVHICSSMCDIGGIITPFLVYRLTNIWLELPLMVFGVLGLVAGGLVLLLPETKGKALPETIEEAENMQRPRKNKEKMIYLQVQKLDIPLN

[2] = biological target: T1, Solute carrier family 22 member 2; test: TP_TRANSPORTER: inhibition of cimetidine uptake (Cimetidine: 100 uM, Metoprolol: 1000 uM) in OCT2-expressing mIMCD3 cells; conditions: mouse, mimcd3, 1000 µM
[3] = biological target: T1, Solute carrier family 22 member 2; test: TP_TRANSPORTER: inhibition of cimetidine uptake (Cimetidine: 100 uM, Propranolol: 1000 uM) in OCT2-expressing mIMCD3 cells; conditions: mouse, mimcd3, 1000 µM
[4] = substrate: C[n+]1ccc(-c2ccccc2)cc1; test: as §1

CN/C(=N/CCSCc1nc[nH]c1C)NC#N [CIMETIDINE]
Activity [1]: substrate [+]

COCCc1ccc(OCC(O)CNC(C)C)cc1 (stereo not given) [METOPROLOL]
Activity [2]: inhibitor [(at a rough estimate) 30 % of control]

CC(C)NCC(O)COc1cccc2ccccc12 (stereo not given) [PROPRANOLOL]
Activity [3]: inhibitor [(at a rough estimate) 10 % of control]
Activity [1]: substrate [+]

B1: Solute carrier family 22 member 2 (Homo sapiens) (protein)
chain: MPTTVDDVLEHGGEFHFFQKQMFFLLALLSATFAPIYVGIVFLGFTPDHRCRSPGVAELSLRCGWSPAEELNYTVPGPGPAGEASPRQCRRYEVDWNQSTFDCVDPLASLDTNRSRLPLGPCRDGWVYETPGSSIVTEFNLVCANSWMLDLFQSSVNVGFFIGSMSIGYIADRFGRKLCLLTTVLINAAAGVLMAISPTYTWMLIFRLIQGLVSKAGWLIGYILITEFVGRRYRRTVGIFYQVAYTVGLLVLAGVAYALPHWRWLQFTVSLPNFFFLLYYWCIPESPRWLISQNKNAEAMRIIKHIAKKNGKSLPASLQRLRLEEETGKKLNPSFLDLVRTPQIRKHTMILMYNWFTSSVLYQGLIMHMGLAGDNIYLDFFYSALVEFPAAFMIILTIDRIGRRYPWAASNMVAGAACLASVFIPGDLQWLKIIISCLGRMGITMAYEIVCLVNAELYPTFIRNLGVHICSSMCDIGGIITPFLVYRLTNIWLELPLMVFGVLGLVAGGLVLLLPETKGKALPETIEEAENMQRPRKNKEKMIYLQVQKLDIPLN
Km [4]: 22.2 µM
